Results: US10703764B2, “Benzopiperazine compositions as BET bromodomain inhibitors” (FORMA Therapeutics, Inc., priority 2013, dated 2020)

Legend:
[1] = target: T1, BRD4 BD1 (Homo sapiens, UniProt O60885); assay: AlphaScreen binding assay, BRD4 Bromodomain 1
T1 construct: made in house
How it was run: (§1)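 An AlphaScreen competition format was used with His-BRD4 BD1 or BD2 and biotin-H4 K5/8/12/16-acetyl peptide, each at matched final levels of 50 nM (BD1) or 100 nM (BD2). Incubation in HEPES/NaCl buffer with 0.1% BSA and 0.01% Triton X-100 ran ≥1 h before IC50 determination.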

[2] = tested on: MV4-11 cells; assay: Oncology cell growth assay (3-day proliferation, CellTiter-Glo); type: cell-based; conditions: Homo sapiens, MV4-11, 72 h, AML cell line MV4-11, 72 hours, compounds grouped by IC50 range, read-out: MV4-11 IC50 (inhibition of proliferation, gIC50)
How it was run: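 Luminescence from CellTiter-Glo served as the growth read-out after MV4-11 cells (3000/well) were cultured with compound for 72 hours. Final concentrations spanned 10 to 0.0045 μM in 3-fold steps. gIC50 values were derived by four-parameter logistic fitting relative to DMSO and cell-free controls.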

[3] = target: T2, BRD4 BD2 (Homo sapiens, UniProt O60885); assay: AlphaScreen binding assay, BRD4 Bromodomain 2
T2 construct: made in house
How it was run: as §1

| Structure (SMILES) | IC50 [1] | IC50 [2] | IC50 [3] |
| --- | --- | --- | --- |
| CC(=O)N1c2cc(F)c(-c3ccc(S(C)(=O)=O)cc3)cc2N(C(=O)OC(C)C)C[C@@H]1C [Example I-196, Isopropyl (S)-4-acetyl-6-fluoro-3-methyl-7-(4-(methylsulfonyl)phenyl)-3,4-dihydroquinoxaline-1(2H)-carboxylate] | 1000 to 10000 nM | > 500 nM | > 500 nM |
| CC(=O)N1c2ccc(-c3cnn(C4COC4)c3)cc2N(C(=O)OC2CC(F)(F)C2)C[C@@H]1C [Example I-65, (S)-3,3-difluorocyclobutyl 4-acetyl-3-methyl-7-(1-(oxetan-3-yl)-1H-pyrazol-4-yl)-3,4-dihydroquinoxaline-1(2H)-carboxylate] | < 100 nM | 100 to 500 nM | < 50 nM |
| COC(=O)Nc1ccc2c(c1)N(C(C)=O)[C@@H](C)CN2C(=O)OC(C)C [Example I-202, Isopropyl (S)-4-acetyl-6-((methoxycarbonyl)amino)-3-methyl-3,4-dihydro quinoxaline-1(2H)-carboxylate] | > 10000 nM | > 500 nM | > 500 nM |
| CC(=O)N1c2ccc(-c3cnn(C4CC4)c3)cc2N(C(=O)Oc2cccc(C)c2)C[C@@H]1C [Example I-517] | 100 to 1000 nM | < 100 nM | 50 to 500 nM |
| CC(=O)N1c2ccc(-c3ccc(N4CCCS4(=O)=O)cc3)cc2N(C(=O)Oc2ccccn2)C[C@@H]1C [Example I-1324] | 100 to 1000 nM | 100 to 500 nM | < 50 nM |
| CC(=O)N1c2ccc(-c3cnn(C4CS(=O)(=O)C4)c3)cc2N(C(=O)OC2CCC2)C[C@@H]1C [Example I-98, cyclobutyl (3S)-4-acetyl-7-[1-(1,1-dioxo-1λ^6-thietan-3-yl)-1H-pyrazol-4-yl]-3-methyl-1,2,3,4-tetrahydroquinoxaline-1-carboxylate] | 100 to 1000 nM | 100 to 500 nM | 50 to 500 nM |
| CC(=O)N1c2ccc(-c3cnn(C4CC4)c3)cc2N(C(=O)Oc2cccc(Cl)c2)C[C@@H]1C [Example I-518] | 100 to 1000 nM | 100 to 500 nM | 50 to 500 nM |
| CC(=O)N1c2ccc(-c3cn[nH]c3)cc2N(C(=O)OC2CCCC2)C[C@@H]1C [Example I-20, (S)-cyclopentyl 4-acetyl-3-methyl-7-(1H-pyrazol-4-yl)-3,4-dihydro-quinoxaline-1(2H)-carboxylate] | < 100 nM | 100 to 500 nM | 50 to 500 nM |
| CC(=O)N1c2ccc(-c3cnn(C4CC4)c3)cc2N(C(=O)OC2CC(F)(F)C2)C[C@@H]1C [Example I-26, (S)-3,3-difluorocyclobutyl 4-acetyl-7-(1-cyclopropyl-1H-pyrazol-4-yl)-3-methyl-3,4-dihydroquinoxaline-1(2H)-carboxylate] | 100 to 1000 nM | 100 to 500 nM | 50 to 500 nM |
| CC(=O)N1c2ccc(-c3ccc(S(=O)(=O)NC(C)(C)C)cc3)cc2N(C(=O)C2CC2)C[C@@H]1C [Example I-1127] | 1000 to 10000 nM | 100 to 500 nM | 50 to 500 nM |
| CCOC(=O)N1C[C@H](C)N(C(C)=O)c2ccc(-c3ccc(OC)c(N4CCCS4(=O)=O)c3)cc21 [Example I-1169] | 100 to 1000 nM | 100 to 500 nM | 50 to 500 nM |
| CC(=O)N1c2ccc(-c3ccc(NS(C)(=O)=O)cc3)cc2N(C(=O)Oc2ccc(F)cc2F)C[C@@H]1C [Example I-1013] | 100 to 1000 nM | 100 to 500 nM | 50 to 500 nM |
| CC(=O)N1c2ccc(-c3ccc(S(C)(=O)=O)cc3)cc2N(C(=O)OC2CCOCC2)C[C@@H]1C [Example I-496] | 100 to 1000 nM | 100 to 500 nM | 50 to 500 nM |
| COc1ccc(-c2ccc3c(c2)N(C(=O)C2CC2)C[C@H](C)N3C(C)=O)cc1N1CCCS1(=O)=O [Example I-1167] | 100 to 1000 nM | 100 to 500 nM | 50 to 500 nM |
| CC(=O)N1c2ccc(-c3cnn(C4CC4)c3)cc2N(C(=O)Oc2ccc(Cl)cc2)C[C@@H]1C [Example I-260] | < 100 nM | 100 to 500 nM | < 50 nM |
| CC(=O)N1c2ccc(-c3cnn(C4CC4)c3)cc2N(C(=O)Oc2ccc(C)nc2C)C[C@@H]1C [Example I-1190] | 100 to 1000 nM | > 500 nM | 50 to 500 nM |
| CC(=O)N1c2ccc(-c3cnn(C4CNC4)c3)cc2N(C(=O)OC2CC(F)(F)C2)C[C@@H]1C [Example I-152, (S)-3,3-difluorocyclobutyl 4-acetyl-7-(1-(azetidin-3-yl)-1H-pyrazol-4-yl)-3-methyl-3,4-dihydroquinoxaline-1(2H)-carboxylate] | 100 to 1000 nM | 100 to 500 nM | < 50 nM |
| CC(C)OC(=O)N1C[C@H](C)N(C(=O)C2CC2)c2ccc(-c3cnn(CC4(CO)COC4)c3)cc21 [Example I-615] | 100 to 1000 nM | 100 to 500 nM | 50 to 500 nM |
| CC(=O)N1c2ccc(-c3cnn(C4COC4)c3)cc2N(C(=O)Oc2ccccn2)C[C@@H]1C [Example I-91, (S)-pyridin-2-yl 4-acetyl-3-methyl-7-(1-(oxetan-3-yl)-1H-pyrazol-4-yl)-3,4-dihydroquinoxaline-1(2H)-carboxylate] | < 100 nM | 100 to 500 nM | < 50 nM |
| CC(=O)N1c2ccc(-c3ccc(C(=O)N4CCNCC4)cc3)cc2N(C(=O)c2ccco2)C[C@@H]1C [Example I-422] | 100 to 1000 nM | 100 to 500 nM | < 50 nM |

| Structure (SMILES) | IC50 [1] | IC50 [2] | IC50 [3] |
| --- | --- | --- | --- |
| CCOC(=O)N1C[C@H](C)N(C(C)=O)c2ccc(-c3cccc(S(=O)(=O)C4CC4)c3)cc21 [Example I-1088] | 1000 to 10000 nM | > 500 nM | 50 to 500 nM |
| CC(=O)N1c2ccc(-c3cccc(S(C)(=O)=O)c3)cc2N(C(=O)OC2CCOCC2)C[C@@H]1C [Example I-1226] | 100 to 1000 nM | > 500 nM | 50 to 500 nM |
| CC(=O)N1c2ccc(-c3cccc(S(=O)(=O)N(C)C)c3)cc2N(C(=O)c2ccco2)C[C@@H]1C [Example I-845] | 100 to 1000 nM | 100 to 500 nM | 50 to 500 nM |
| CC(=O)N1c2ccc(-c3ccc(S(=O)(=O)C4CC4)cc3)cc2N(C(=O)C2CC2)C[C@@H]1C [Example I-1031] | 1000 to 10000 nM | 100 to 500 nM | 50 to 500 nM |
| CC(C)OC(=O)N1C[C@H](C)N(C(=O)C2CC2)c2ccc(-c3cnn(C4CCNCC4)c3)cc21 [Example I-354] | 100 to 1000 nM | 100 to 500 nM | 50 to 500 nM |
| CC(=O)N1c2ccc(-c3ccc(N4CCOCC4)cc3)cc2N(C(=O)c2ccco2)C[C@@H]1C [Example I-850] | 100 to 1000 nM | 100 to 500 nM | < 50 nM |
| COC(=O)N1c2ccc(-c3cnc(N)cn3)cc2N(C(=O)OC(C)C)C[C@@H]1C [Example I-485] | 100 to 1000 nM | > 500 nM | 50 to 500 nM |
| CC(=O)N1c2ccc(-c3cnn(C4CC4)c3)cc2N(c2nn(C)c3cccc(F)c23)C[C@@H]1C [Example I-183, 1-[(2S)-6-(1-cyclopropyl-1H-pyrazol-4-yl)-4-(4-fluoro-1-methyl-1H-indazol-3-yl)-2-methyl-1,2,3,4-tetrahydroquinoxalin-1-yl]ethan-1-one] | 100 to 1000 nM | 100 to 500 nM | < 50 nM |
| CC(=O)N1c2ccc(-c3cccc(NS(C)(=O)=O)c3)cc2N(C(=O)OC2CCCCC2)C[C@@H]1C [Example I-1221] | 100 to 1000 nM | 100 to 500 nM | 50 to 500 nM |
| CC(=O)N1c2ccc(-c3cnn(C4CC4)c3)cc2N(C(=O)Oc2ccc3ncccc3c2)C[C@@H]1C [Example I-512] | < 100 nM | < 100 nM | < 50 nM |
| CC(=O)N1c2ccc(-c3cnn(C4CC4)c3)cc2N(C(=O)Oc2ccccc2)C[C@@H]1C [Example I-256] | 100 to 1000 nM | < 100 nM | < 50 nM |
| CC(=O)N1c2ccc(-c3cnn(C4CCCS(=O)(=O)C4)c3)cc2N(C(=O)OC2CCC2)C[C@@H]1C (stereo partly drawn) [Example I-158, cyclobutyl (3S)-4-acetyl-7-[1-(1,1-dioxo-16-thian-3-yl)-1H-pyrazol-4-yl]-3-methyl-1,2,3,4-tetrahydroquinoxaline-1-carboxylate] | 100 to 1000 nM | 100 to 500 nM | < 50 nM |
| CC(=O)N1c2ccc(-c3cnn(C4CCC4)c3)cc2N(C(=O)OC(C)C)C[C@@H]1C [Example I-24, (S)-isopropyl 4-acetyl-7-(1-cyclobutyl-1H-pyrazol-4-yl)-3-methyl-3,4-dihydroquinoxaline-1(2H)-carboxylate] | < 100 nM | 100 to 500 nM | 50 to 500 nM |
| COC(=O)N1c2ccc(-c3ccc(N4CCS(=O)(=O)CC4)cc3)cc2N(C(=O)OC(C)C)C[C@@H]1C [Example I-483] | 100 to 1000 nM | > 500 nM | 50 to 500 nM |
| CC(=O)N1c2ccc(-c3cnn(Cc4ccn(C)n4)c3)cc2N(C(=O)C2CC2)C[C@@H]1C [Example I-682] | 100 to 1000 nM | 100 to 500 nM | 50 to 500 nM |
| CC(C)OC(=O)N1C[C@H](C)N(C(=O)C2CC2)c2ccc(-c3cnn(CC(N)=O)c3)cc21 [Example I-310] | 100 to 1000 nM | > 500 nM | 50 to 500 nM |
| COC(=O)N1c2ccc(-c3cnn(Cc4cncnc4)c3)cc2N(C(=O)OC(C)C)C[C@@H]1C [Example I-632] | 100 to 1000 nM | 100 to 500 nM | 50 to 500 nM |
| CC(=O)N1c2ccc(-c3ccc(C(=O)N4CC[C@H](N(C)C)C4)cc3)cc2N(C(=O)OC(C)C)C[C@@H]1C [Example I-543] | < 100 nM | < 100 nM | < 50 nM |
| CC(=O)N1c2ccc(-c3cnn(CC4COC4)c3)cc2N(C(=O)OC(C)C)C[C@@H]1C [Example I-642] | 100 to 1000 nM | 100 to 500 nM | 50 to 500 nM |
